Measurements as given in US9023789B2, “Amylin analogs and pharmaceutical compositions thereof” (Novo Nordisk A/S, priority 2012, dated 2015).
≈ marks a conversion by molar mass, not a printed value. Like-named read-outs stand apart in the source and are kept apart here. Numbered stars: 1 amine (or outer) side, 2 acyl side, 3 side chain; on linkers, the order of the positions; unused ones are H or OH. Bridge positions count the residues as written; N and C are the ends. Side chains are listed from the residue outwards. Peptide text beside a SMILES is read from it. * marks the point of attachment. C20 diacid = O=C(O)CCCCCCCCCCCCCCCCCCC(=O)*; γGlu = O=C(O)[C@H](CCC(=O)[*:2])N[*:1]

How the values were obtained:
[1] = molecular target: T1, rat amylin receptor (rat calcitonin receptor + rat RAMP 3) (Rattus norvegicus, UniProt P32214+Q9JJ73); assay: ASSAY (VI) binding to the rat amylin receptor; conditions: for IC50: binding to rat amylin receptor, read-out: rAmylin-R bind IC50
T1 construct: expressed in transfected cells; host or cells: BHK tk'ts 13 (transient, FuGENE 6), membranes
T1 sequence (P32214 25-479 isoform P32214-2 limits assumed): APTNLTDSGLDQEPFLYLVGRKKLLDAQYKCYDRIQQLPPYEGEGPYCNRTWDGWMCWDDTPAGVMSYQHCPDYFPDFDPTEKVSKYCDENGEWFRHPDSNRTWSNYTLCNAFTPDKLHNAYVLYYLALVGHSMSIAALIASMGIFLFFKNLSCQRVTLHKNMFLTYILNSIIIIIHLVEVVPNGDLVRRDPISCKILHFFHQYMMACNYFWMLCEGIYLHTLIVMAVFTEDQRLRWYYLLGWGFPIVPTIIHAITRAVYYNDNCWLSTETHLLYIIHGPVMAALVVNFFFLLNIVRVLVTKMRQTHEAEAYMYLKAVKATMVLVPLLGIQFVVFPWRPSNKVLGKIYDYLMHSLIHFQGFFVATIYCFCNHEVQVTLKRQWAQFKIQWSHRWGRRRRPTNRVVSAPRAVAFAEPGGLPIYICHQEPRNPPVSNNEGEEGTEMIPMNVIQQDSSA
T1 sequence (Q9JJ73 23-147 partner): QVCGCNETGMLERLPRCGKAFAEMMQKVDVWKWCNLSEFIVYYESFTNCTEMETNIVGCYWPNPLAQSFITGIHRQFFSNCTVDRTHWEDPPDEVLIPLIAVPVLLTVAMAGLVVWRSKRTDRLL
Method in brief: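 This assay measured binding to the rat amylin receptor. BHK tk′ts 13 cells were transiently transfected with the rat calcitonin receptor using FuGENE® 6 (Roche), following the manufacturer's recommendations. About 48 hours after transfection, the cells were harvested and membranes were prepared from them for the binding determination.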

[2] = molecular target: T2, human amylin receptor (membranes from Amylin 3(a)/CRE-luc cells) (Homo sapiens, UniProt O60896+P30988); assay: ASSAY (V) binding to the human amylin receptor (SPA, 125I-rat amylin);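 further: competition binding of cell membranes (35 ng/µL) mixed with SPA beads in 384-well plates at 40 µL total volume, read by scintillation counting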
T2 construct: expressed in transfected cells
T2 sequence (P30988 25-474): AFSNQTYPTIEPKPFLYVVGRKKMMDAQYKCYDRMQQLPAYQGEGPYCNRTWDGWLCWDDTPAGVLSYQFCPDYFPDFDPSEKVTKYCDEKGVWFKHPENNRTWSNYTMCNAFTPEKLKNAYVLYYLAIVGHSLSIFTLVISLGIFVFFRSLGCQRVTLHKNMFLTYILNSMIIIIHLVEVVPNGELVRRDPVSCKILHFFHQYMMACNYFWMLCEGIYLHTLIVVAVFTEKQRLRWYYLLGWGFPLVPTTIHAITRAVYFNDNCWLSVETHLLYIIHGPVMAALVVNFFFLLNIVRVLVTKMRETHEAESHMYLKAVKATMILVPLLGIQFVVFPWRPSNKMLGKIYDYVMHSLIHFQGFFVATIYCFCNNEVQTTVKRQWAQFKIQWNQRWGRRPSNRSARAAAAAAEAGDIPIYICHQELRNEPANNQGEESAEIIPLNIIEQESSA
T2 sequence (O60896 24-148 partner): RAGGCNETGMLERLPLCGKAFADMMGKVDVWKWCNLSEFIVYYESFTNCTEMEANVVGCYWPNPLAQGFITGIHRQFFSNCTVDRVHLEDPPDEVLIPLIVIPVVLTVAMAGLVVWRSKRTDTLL

rat calcitonin receptor = molecular target: T3, rat calcitonin receptor (Rattus norvegicus, UniProt P32214); assay: ASSAY (VIII) binding to the rat calcitonin receptor; conditions: Table 7, read-out: rCTR bind IC50
T3 construct: expressed in transfected cells; host or cells: BHK tk'ts 13 (transient, FuGENE 6), membranes
T3 sequence (P32214 25-479 isoform P32214-2 limits assumed): T1 sequence (P32214 25-479 isoform P32214-2 limits assumed)
Method in brief: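 Rat calcitonin receptor is expressed transiently in BHK tk′ts 13 cells cultured in DMEM with 10% FBS. Roughly two days (approximately 48 hours) post-transfection, cells are harvested for membrane preparation.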

[3] = ASSAY (IV) determination of solubility; assay type: physicochemical
Method in brief: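 Dissolve polypeptide in water ([…] stock); combine 1:1 with each 100 mM buffer (glycylglycine pH 3.0/4.0/5.0; bistrispropane pH 6.0/6.5/7.0/7.5/8.0); hold 18 hours at room temperature; centrifuge; quantify polypeptide by UPLC.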

[4] = Table 7, rat binding selectivity, rCTR IC50 / rAmylin-R IC50
[5] = Table 5, selectivity, hCTR bind IC50 / hAmylin-R bind IC50
[6] = Table 7, human binding selectivity, included for comparison
[7] = bistrispropane buffer, pH 6.5, read-out: Solubility pH 6.5 Concentration
[8] = bistrispropane buffer, pH 7.5, read-out: Solubility pH 7.5 Concentration
[9] = bistrispropane buffer, pH 6.0, read-out: Solubility pH 6.0 Concentration
[10] = bistrispropane buffer, pH 7.0, read-out: Solubility pH 7.0 Concentration
[11] = bistrispropane buffer, pH 8.0, read-out: Solubility pH 8.0 Concentration
[12] = glycylglycine buffer, pH 3.0, read-out: Solubility pH 3.0 Concentration
[13] = glycylglycine buffer, pH 4.0, read-out: Solubility pH 4.0 Concentration
[14] = glycylglycine buffer, pH 5.0, read-out: Solubility pH 5.0 Concentration
[15] = Table 7a (preferred compounds), rat binding selectivity, rCTR IC50 / rAmylin-R IC50
[16] = ratio of rCTR bind IC50 to rAmylin-R bind IC50
[17] = Table 5a, selectivity, hCTR bind IC50 / hAmylin-R bind IC50
[18] = Table 7a (preferred compounds), human binding selectivity, included for comparison
[19] = ratio of human calcitonin receptor binding IC50 to human amylin receptor binding IC50

Row | Ratio rCT/rAmylin binding [1, 4] | Ratio hCT/hAmylin binding [2, 5] | Ratio hCT/hAmylin binding [2, 6] | IC50 (rat calcitonin receptor) | solubility at 18 h [3, 7] | solubility at 18 h [3, 8] | solubility at 18 h [3, 9] | solubility at 18 h [3, 10] | solubility at 18 h [3, 11] | solubility at 18 h [3, 12] | solubility at 18 h [3, 13] | solubility at 18 h [3, 14] | IC50 ([1]; Table 7) | Ratio rCT/rAmylin binding [1, 15] | Ratio rCT/rAmylin binding [1, 16] | Ratio hCT/hAmylin binding [2, 17] | Ratio hCT/hAmylin binding ([2]; Table 5b, selectivity, hCTR bind IC50 / hAmylin-R bind IC50) | Ratio hCT/hAmylin binding ([2]; Table 5c, selectivity, hCTR bind IC50 / hAmylin-R bind IC50) | Ratio hCT/hAmylin binding [2, 18] | Ratio hCT/hAmylin binding [2, 19] | SMILES
1 | 5.0 | 2.5 | 2.5 | 2.71 nM | ≥ 200 µM | ≥ 200 µM | ≥ 200 µM | ≥ 200 µM | ≥ 200 µM | ≥ 200 µM | ≥ 200 µM | ≥ 200 µM |  |  |  |  |  |  |  |  | CC[C@H](C)[C@H](NC(=O)[C@H](C)NC(=O)CNC(=O)[C@H](Cc1ccccc1)NC(=O)[C@H](CC(N)=O)NC(=O)[C@@H]1CCCN1C(=O)[C@H](CO)NC(=O)[C@H](CO)NC(=O)[C@H](Cc1c[nH]cn1)NC(=O)[C@H](CCCNC(=N)N)NC(=O)[C@H](CC(C)C)NC(=O)[C@H](Cc1ccccc1)NC(=O)[C@H](CCC(=O)O)NC(=O)[C@H](C)NC(=O)[C@H](CC(C)C)NC(=O)[C@H](CCCNC(=N)N)NC(=O)[C@H](CCC(N)=O)NC(=O)[C@@H](NC(=O)[C@H](C)NC(=O)[C@@H]1CSSC[C@H](NC(=O)[C@@H](N)CCCCNC(=O)CC[C@H](NC(=O)CCCCCCCCCCCCCCCCCCC(=O)O)C(=O)O)C(=O)N[C@@H](CC(N)=O)C(=O)N[C@@H]([C@@H](C)O)C(=O)N[C@@H](C)C(=O)N[C@@H]([C@@H](C)O)C(=O)N1)[C@@H](C)O)C(=O)N1CCC[C@H]1C(=O)N[C@@H](CO)C(=O)N[C@@H](CO)C(=O)N[C@H](C(=O)N[C@@H](CC(N)=O)C(=O)N[C@H](C(=O)NCC(=O)N[C@@H](CO)C(=O)N[C@@H](CC(N)=O)C(=O)N[C@H](C(=O)N1CCC[C@H]1C(N)=O)[C@@H](C)O)C(C)C)[C@@H](C)O [Example 12] (H-K([γGlu-C20 diacid])CNTATCATQRLAEFLRHSSPNFGAIPSSTNVGSNTP-NH2; disulfide 2-7 (inferred); N-terminus assumed)
2 | 36.1 | 23.6 | 23.6 | 114 nM | ≥ 200 µM | ≥ 200 µM | ≥ 200 µM | ≥ 200 µM | ≥ 200 µM | ≥ 200 µM | ≥ 200 µM | ≥ 200 µM | 3.14 nM | 36.1 | 36.1 | 23.6 | 23.6 | 23.6 | 23.6 | 23.6 | CC[C@H](C)[C@H](NC(=O)[C@H](C)NC(=O)CNC(=O)[C@H](Cc1ccccc1)NC(=O)[C@H](CC(N)=O)NC(=O)[C@@H]1CCCN1C(=O)[C@H](CO)NC(=O)[C@H](CO)NC(=O)[C@H](Cc1c[nH]cn1)NC(=O)[C@H](CCCNC(=N)N)NC(=O)[C@H](CC(C)C)NC(=O)[C@H](Cc1ccccc1)NC(=O)[C@H](Cc1c[nH]cn1)NC(=O)[C@H](C)NC(=O)[C@H](CC(C)C)NC(=O)[C@H](CCCNC(=N)N)NC(=O)[C@H](CCC(N)=O)NC(=O)[C@@H](NC(=O)[C@H](C)NC(=O)[C@@H]1CSSC[C@H](NC(=O)[C@H](CCCCN)NC(=O)CC[C@H](NC(=O)CCCCCCCCCCCCCCCCCCC(=O)O)C(=O)O)C(=O)N[C@@H](CC(N)=O)C(=O)N[C@@H]([C@@H](C)O)C(=O)N[C@@H](C)C(=O)N[C@@H]([C@@H](C)O)C(=O)N1)[C@@H](C)O)C(=O)N1CCC[C@H]1C(=O)N[C@@H](CO)C(=O)N[C@@H](CO)C(=O)N[C@H](C(=O)N[C@@H](CC(N)=O)C(=O)N[C@H](C(=O)NCC(=O)N[C@@H](CO)C(=O)N[C@@H](CCC(=O)O)C(=O)N[C@H](C(=O)N[C@@H](Cc1ccc(O)cc1)C(N)=O)[C@@H](C)O)C(C)C)[C@@H](C)O [Example 30] ({C20 diacid-γGlu}-KCNTATCATQRLAHFLRHSSPNFGAIPSSTNVGSETY-NH2; disulfide 2-7)
3 | 28.5 | 12.3 | 12.3 | 62.5 nM | ≥ 200 µM | ≥ 200 µM | 195 µM (≈ 860 µg/mL) | ≥ 200 µM | ≥ 200 µM | ≥ 200 µM | ≥ 200 µM | ≥ 200 µM | 2.19 nM | 28.5 | 28.5 | 12.3 |  |  | 12.3 | 12.3 | CC[C@H](C)[C@H](NC(=O)[C@H](C)NC(=O)CNC(=O)[C@H](Cc1ccccc1)NC(=O)[C@H](CC(N)=O)NC(=O)[C@@H]1CCCN1C(=O)[C@H](CO)NC(=O)[C@H](CO)NC(=O)[C@H](Cc1c[nH]cn1)NC(=O)[C@H](CCCNC(=N)N)NC(=O)[C@H](CC(C)C)NC(=O)[C@H](Cc1ccccc1)NC(=O)[C@H](CCC(=O)O)NC(=O)[C@H](C)NC(=O)[C@H](CC(C)C)NC(=O)[C@H](CCCNC(=N)N)NC(=O)[C@H](CCC(N)=O)NC(=O)[C@@H](NC(=O)[C@H](C)NC(=O)[C@@H]1CSSC[C@H](NC(=O)[C@H](CCCCN)NC(=O)CC[C@H](NC(=O)CCCCCCCCCCCCCCCCCCC(=O)O)C(=O)O)C(=O)N[C@@H](CC(N)=O)C(=O)N[C@@H]([C@@H](C)O)C(=O)N[C@@H](C)C(=O)N[C@@H]([C@@H](C)O)C(=O)N1)[C@@H](C)O)C(=O)N1CCC[C@H]1C(=O)N[C@@H](CO)C(=O)N[C@@H](CO)C(=O)N[C@H](C(=O)N[C@@H](CC(N)=O)C(=O)N[C@H](C(=O)NCC(=O)N[C@@H](CO)C(=O)N[C@@H](CCC(=O)O)C(=O)N[C@H](C(=O)N[C@@H](Cc1ccc(O)cc1)C(N)=O)[C@@H](C)O)C(C)C)[C@@H](C)O [Example 22] ({C20 diacid-γGlu}-KCNTATCATQRLAEFLRHSSPNFGAIPSSTNVGSETY-NH2; disulfide 2-7)
